Assay results from ChEMBL document CHEMBL4813981, “Synthesis and in vitro antibacterial activity of new aminothiazole-oximepiperidone cephalosporins” (2021).
In brackets after ≈: the same amount, converted by molar mass.

Key:
Assay type in all cases: functional
[1] = tested on: Klebsiella pneumoniae; test: Antibacterial activity against Carbapenem- sensitive Klebsiella pneumoniae 17-6 overexpressing extended spectrum beta-lactamases assessed as reduction in bacterial growth
[2] = tested on: Enterobacter cloacae; test: Antibacterial activity against Enterobacter cloacae 17-8 assessed as reduction in bacterial growth
[3] = tested on: Escherichia coli; test: Antibacterial activity against ESBLs positive Carbapenem-sensitive Escherichia coli 17-14 assessed as reduction in bacterial growth
[4] = tested on: Escherichia coli; test: Antibacterial activity against ESBLs negative Carbapenem-sensitive Escherichia coli 17-9 assessed as reduction in bacterial growth
[5] = tested on: Klebsiella aerogenes; test: Antibacterial activity against Enterobacter aerogenes 17-4 assessed as reduction in bacterial growth
[6] = tested on: Klebsiella pneumoniae; test: Antibacterial activity against Carbapenem- sensitive Klebsiella pneumoniae 17-2 overexpressing extended spectrum beta-lactamases assessed as reduction in bacterial growth
[7] = tested on: Pseudomonas aeruginosa; test: Antibacterial activity against Carbapenem- sensitive Pseudomonas aeruginosa 17-7 assessed as reduction in bacterial growth
[8] = tested on: Klebsiella pneumoniae; test: Antibacterial activity against Carbapenem- sensitive Klebsiella pneumoniae 17-12 overexpressing extended spectrum beta-lactamases assessed as reduction in bacterial growth
[9] = tested on: Enterobacter cloacae; test: Antibacterial activity against Enterobacter cloacae 17-5 assessed as reduction in bacterial growth
[10] = tested on: Escherichia coli; test: Antibacterial activity against ESBLs positive Carbapenem-sensitive Escherichia coli 17-17 assessed as reduction in bacterial growth
[11] = tested on: Escherichia coli; test: Antibacterial activity against ESBLs positive Carbapenem-sensitive Escherichia coli 17-6 assessed as reduction in bacterial growth
[12] = tested on: Escherichia coli; test: Antibacterial activity against ESBLs positive Carbapenem-sensitive Escherichia coli 17-18 assessed as reduction in bacterial growth
[13] = tested on: Klebsiella pneumoniae; test: Antibacterial activity against Carbapenem- sensitive Klebsiella pneumoniae 17-8 overexpressing extended spectrum beta-lactamases assessed as reduction in bacterial growth
[14] = tested on: Klebsiella pneumoniae; test: Antibacterial activity against ESBLs negative Carbapenem-sensitive Klebsiella pneumoniae 17-18 assessed as reduction in bacterial growth
[15] = tested on: Escherichia coli; test: Antibacterial activity against ESBLs positive Carbapenem-sensitive Escherichia coli 17-10 assessed as reduction in bacterial growth
[16] = tested on: Pseudomonas aeruginosa; test: Antibacterial activity against Carbapenem- resistant Pseudomonas aeruginosa 17-1 assessed as reduction in bacterial growth
[17] = tested on: Pseudomonas aeruginosa; test: Antibacterial activity against Carbapenem- sensitive Pseudomonas aeruginosa 17-26 assessed as reduction in bacterial growth
[18] = tested on: Klebsiella pneumoniae; test: Antibacterial activity against Carbapenem- sensitive Klebsiella pneumoniae 17-15 overexpressing extended spectrum beta-lactamases assessed as reduction in bacterial growth
[19] = tested on: Klebsiella pneumoniae; test: Antibacterial activity against Carbapenem- resistant Klebsiella pneumoniae KR 15-7 assessed as reduction in bacterial growth
[20] = tested on: Pseudomonas aeruginosa; test: Antibacterial activity against Carbapenem- sensitive Pseudomonas aeruginosa 17-24 assessed as reduction in bacterial growth
[21] = tested on: Enterobacter cloacae; test: Antibacterial activity against Enterobacter cloacae 17-4 assessed as reduction in bacterial growth
[22] = tested on: Escherichia coli; test: Antibacterial activity against ESBLs negative Carbapenem-sensitive Escherichia coli 17-1 assessed as reduction in bacterial growth
[23] = tested on: Klebsiella aerogenes; test: Antibacterial activity against Enterobacter aerogenes 17-1 assessed as reduction in bacterial growth
[24] = tested on: Escherichia coli; test: Antibacterial activity against ESBLs positive Carbapenem-sensitive Escherichia coli 17-8 assessed as reduction in bacterial growth
[25] = tested on: Escherichia coli; test: Antibacterial activity against Escherichia coli NCTC 13353 assessed as reduction in bacterial growth
[26] = tested on: Pseudomonas aeruginosa; test: Antibacterial activity against Pseudomonas aeruginosa ATCC 27853 assessed as reduction in bacterial growth
[27] = tested on: Klebsiella aerogenes; test: Antibacterial activity against Enterobacter aerogenes 15-7 assessed as reduction in bacterial growth
[28] = tested on: Klebsiella pneumoniae; test: Antibacterial activity against ESBLs negative Carbapenem-sensitive Klebsiella pneumoniae 17-20 assessed as reduction in bacterial growth
[29] = tested on: Klebsiella aerogenes; test: Antibacterial activity against Enterobacter aerogenes 17-5 assessed as reduction in bacterial growth
[30] = tested on: Escherichia coli; test: Antibacterial activity against ESBLs positive Carbapenem-sensitive Escherichia coli 17-2 assessed as reduction in bacterial growth
[31] = tested on: Klebsiella pneumoniae; test: Antibacterial activity against ESBLs negative Carbapenem-sensitive Klebsiella pneumoniae 17-17 assessed as reduction in bacterial growth
[32] = tested on: Klebsiella pneumoniae; test: Antibacterial activity against Carbapenem- resistant Klebsiella pneumoniae KR 15-10 assessed as reduction in bacterial growth
[33] = tested on: Pseudomonas aeruginosa; test: Antibacterial activity against Carbapenem- resistant Pseudomonas aeruginosa 17-8 assessed as reduction in bacterial growth
[34] = tested on: Klebsiella pneumoniae; test: Antibacterial activity against Klebsiella pneumoniae ATCC BAA-1705 assessed as reduction in bacterial growth
[35] = tested on: Klebsiella pneumoniae; test: Antibacterial activity against Carbapenem- sensitive Klebsiella pneumoniae 17-14 overexpressing extended spectrum beta-lactamases assessed as reduction in bacterial growth
[36] = tested on: Klebsiella pneumoniae; test: Antibacterial activity against ESBLs negative Carbapenem-sensitive Klebsiella pneumonia 15-2 assessed as reduction in bacterial growth
[37] = tested on: Pseudomonas aeruginosa; test: Antibacterial activity against Carbapenem- resistant Pseudomonas aeruginosa 17-5 assessed as reduction in bacterial growth
[38] = tested on: Klebsiella aerogenes; test: Antibacterial activity against Enterobacter aerogenes 15-3 assessed as reduction in bacterial growth
[39] = tested on: Acinetobacter baumannii; test: Antibacterial activity against Carbapenem- resistant Acinetobacter baumannii 17-11 assessed as reduction in bacterial growth
[40] = tested on: Pseudomonas aeruginosa; test: Antibacterial activity against Carbapenem- sensitive Pseudomonas aeruginosa 17-21 assessed as reduction in bacterial growth
[41] = tested on: Acinetobacter baumannii; test: Antibacterial activity against Carbapenem- resistant Acinetobacter baumannii 17-13 assessed as reduction in bacterial growth
[42] = tested on: Klebsiella pneumoniae; test: Antibacterial activity against Carbapenem- resistant Klebsiella pneumoniae KR 15-6 assessed as reduction in bacterial growth
[43] = tested on: Pseudomonas aeruginosa; test: Antibacterial activity against Carbapenem- sensitive Pseudomonas aeruginosa 17-10 assessed as reduction in bacterial growth
[44] = tested on: Klebsiella aerogenes; test: Antibacterial activity against Enterobacter aerogenes 15-6 assessed as reduction in bacterial growth
[45] = tested on: Klebsiella pneumoniae; test: Antibacterial activity against Carbapenem- resistant Klebsiella pneumoniae KR 15-13 assessed as reduction in bacterial growth
[46] = tested on: Escherichia coli; test: Antibacterial activity against Escherichia coli ATCC 25922 assessed as reduction in bacterial growth
[47] = tested on: Klebsiella pneumoniae; test: Antibacterial activity against Carbapenem- resistant Klebsiella pneumoniae KR 15-12 assessed as reduction in bacterial growth
[48] = tested on: Acinetobacter baumannii; test: Antibacterial activity against Carbapenem- resistant Acinetobacter baumannii 17-10 assessed as reduction in bacterial growth
[49] = tested on: Klebsiella pneumoniae; test: Antibacterial activity against Carbapenem- sensitive Klebsiella pneumoniae 17-9 overexpressing extended spectrum beta-lactamases assessed as reduction in bacterial growth
[50] = tested on: Klebsiella aerogenes; test: Antibacterial activity against Enterobacter aerogenes 17-3 assessed as reduction in bacterial growth
[51] = tested on: Enterobacter cloacae; test: Antibacterial activity against Enterobacter cloacae 17-10 assessed as reduction in bacterial growth
[52] = tested on: Klebsiella pneumoniae; test: Antibacterial activity against Carbapenem- sensitive Klebsiella pneumoniae 17-4 overexpressing extended spectrum beta-lactamases assessed as reduction in bacterial growth
[53] = tested on: Escherichia coli; test: Antibacterial activity against ESBLs positive Carbapenem-sensitive Escherichia coli 17-11 assessed as reduction in bacterial growth
[54] = tested on: Escherichia coli; test: Antibacterial activity against ESBLs negative Carbapenem-sensitive Escherichia coli 17-7 assessed as reduction in bacterial growth

`C[C@@H](O)[C@H]1C(=O)N2C(C(=O)O)=C(S[C@@H]3CN[C@H](C(=O)N(C)C)C3)[C@H](C)[C@H]12` [MEROPENEM] was tested, and the MIC [1] was under 0.03 µg/mL, the MIC [2] was under 0.03 µg/mL and the MIC [3] was under 0.03 µg/mL. It also gave an MIC [4] of under 0.03 µg/mL, an MIC [5] of 0.125 µg/mL (≈ 0.326 µM) and an MIC [6] of under 0.03 µg/mL. The MIC [7] was 0.06 µg/mL (≈ 0.156 µM), the MIC [8] was under 0.03 µg/mL and the MIC [9] was 0.06 µg/mL (≈ 0.156 µM). The MIC [10] was under 0.03 µg/mL, the MIC [11] was under 0.03 µg/mL and the MIC [12] was under 0.03 µg/mL. It also gave an MIC [13] of 0.125 µg/mL (≈ 0.326 µM), an MIC [14] of under 0.03 µg/mL and an MIC [15] of under 0.03 µg/mL. For the same compound, the MIC [16] was 16 µg/mL (≈ 41.7 µM), the MIC [17] was 1 µg/mL (≈ 2.61 µM) and the MIC [18] was under 0.03 µg/mL. For the same compound, the MIC [19] was over 64 µg/mL, the MIC [20] was 2 µg/mL (≈ 5.22 µM) and the MIC [21] was under 0.03 µg/mL. For the same compound, the MIC [22] was under 0.03 µg/mL, the MIC [23] was 0.125 µg/mL (≈ 0.326 µM) and the MIC [24] was under 0.03 µg/mL. The MIC [25] was under 0.03 µg/mL, the MIC [26] was 1 µg/mL (≈ 2.61 µM) and the MIC [27] was 0.125 µg/mL (≈ 0.326 µM). For the same compound, the MIC [28] was under 0.03 µg/mL, the MIC [29] was 0.125 µg/mL (≈ 0.326 µM) and the MIC [30] was under 0.03 µg/mL. It also gave an MIC [31] of under 0.03 µg/mL, an MIC [32] of over 64 µg/mL and an MIC [33] of 32 µg/mL (≈ 83.4 µM). For the same compound, the MIC [34] was 32 µg/mL (≈ 83.4 µM), the MIC [35] was 1 µg/mL (≈ 2.61 µM) and the MIC [36] was under 0.03 µg/mL. For the same compound, the MIC [37] was 32 µg/mL (≈ 83.4 µM), the MIC [38] was 4 µg/mL (≈ 10.4 µM) and the MIC [39] was 32 µg/mL (≈ 83.4 µM). It also gave an MIC [40] of 2 µg/mL (≈ 5.22 µM), an MIC [41] of 64 µg/mL (≈ 167 µM) and an MIC [42] of over 64 µg/mL. The MIC [43] was 0.25 µg/mL (≈ 0.652 µM), the MIC [44] was 0.06 µg/mL (≈ 0.156 µM) and the MIC [45] was 64 µg/mL (≈ 167 µM). For the same compound, the MIC [46] was under 0.03 µg/mL, the MIC [47] was 32 µg/mL (≈ 83.4 µM) and the MIC [48] was 16 µg/mL (≈ 41.7 µM). The MIC [49] was 0.06 µg/mL (≈ 0.156 µM), the MIC [50] was under 0.03 µg/mL and the MIC [51] was under 0.03 µg/mL. It also gave an MIC [52] of 0.06 µg/mL (≈ 0.156 µM), an MIC [53] of under 0.03 µg/mL and an MIC [54] of under 0.03 µg/mL.
